Test results published in patent publication US10729636B2, “Compositions comprising peptide [sequence]” (NURITAS LIMITED, priority 2016, dated 2020).

How the values were obtained:
[1] = test system: Human Dermal Fibroblasts (HDF); experiment: Cell proliferation assay (BrDu), HDF; format: cell-based; settings: HDF cells; 5, 0.5 or 0.05 μg/ml, 24 h; compared with untreated control; FIG. 1
Experimental: BrDu is incorporated into newly synthesised DNA strands of actively proliferating cells. Following partial denaturation of double stranded DNA, BrDu is detected immunochemically allowing the assessment of the population of cells which are synthesizing DNA.
Human Dermal Fibroblasts (HDF—Sigma 10605a) were seeded in a 96 well plate at 10,000 cells per well in DMEM containing 10% fetal calf serum (FCS), 1% Pen/strep, 1% L-glutamine and allowed to adhere for 24 h.
Following the initial 24 h incubation the cells were incubated with 5 μg/ml, 0.5 μg/ml or 0.05 μg/ml synthetic peptide for 24 h respectively.
After 18 h incubation with synthetic peptides 20 μl BrDu reagent was added to each well. At 24 h incubation the cells were fixed and the amount of […] was measured using the BrdU Cell Proliferation Assay, all steps were carried out according to the manufacturer's instructions.

[2] = test system: Human Dermal Fibroblasts (HDF); experiment: Collagen production assay (hydroxyproline ELISA); format: cell-based; settings: 5, 1 or 0.1 μg/ml, 96 h, compared with untreated control, FIG. 3
Experimental: Study Description Hydroxyproline in tissue preparations is a direct measure of the amount of collagen present. […] Human Hydroxyproline ELISA kit assay is designed to measure hydroxyproline in tissue or peptide compositions.
Human Dermal Fibroblasts (HDF Sigma 10605a) were seeded in 24 well plates at 50,000 cells per well in DMEM containing 10% fetal calf serum (FCS), 1% Pen/strep, 1% L-glutamine and allowed to adhere for 24 h.
Following the initial 24 h incubation the cells were incubated with 5 μg/ml, 1 μg/ml or 0.1 μg/ml synthetic peptide for 96 h respectively.
After treatment, the cell supernatant was removed and centrifuged. 50 μl of each supernatant was assayed using the […] Human Hydroxyproline ELISA kit. All steps were carried out according to the manufacturer's instructions.

HACAT cells = experiment: Glucose uptake (2-DG), HACAT; format: cell-based; settings: compared with untreated control, FIG. 5
Experimental: Glucose uptake in skeletal muscle cells was measured using 2-deoxyglucose (2-DG). 2-DG is taken up by glucose transporters and metabolized to 2-DG-6-phosphate (2-DG6P). The amount of accumulated non-metabolized 2-DG6P is proportional to glucose uptake by cells.
Following stimulation, the cells were incubated with 10 μl/well of 2-DG solution for 40 min and glucose uptake was measured using the ‘PrismColor Glucose Uptake Assay Kit’ (Molecutools), all steps were carried out according to the manufacturer's instructions. The experiment was repeated using HACAT cells.

KK.Cg-Ay/J (KKAY mouse) = experiment: Blood glucose management in a mouse model of obesity and diabetes; format: in vivo; settings: KKAY mice; 100 μM/kg subcutaneous injection; after 7 days of treatment
Experimental: (§1) • Species—KK.Cg-Ay/J (KKAY mouse) • Source—Jackson Laboratories • Age—12 weeks of age • Gender—Male • Randomization—Based on baseline fasting glucose Housing and Feeding: • Acclimation—Not less than five days • Housing • Mice will be housed on a 12 hr light/dark cycle • No more than 4 mice per cage depending on size • Ventilated cage rack system • Diet—Standard rodent chow and water ad libitum Design: • Route of administration:—Subcutaneous injection • Dose Volume(s)—10 mL/kg • Dose Levels—Test articles: 100 μM/kg, Metformin: 250 mg/kg • Number per group—10 • Total number of animals—30

Body weight of KKAY mice = format: in vivo, mouse; settings: 100 μM/kg subcutaneous injection, 13 days of treatment
Experimental: as §1

## WKDEAGKPLVK [SEQ ID NO. 1]
[1]
  cell proliferation: increase
[2]
  collagen production: increase
HACAT cells
  glucose uptake: increase
KK.Cg-Ay/J (KKAY mouse)
  blood glucose: significantly reduced
Body weight of KKAY mice
  body weight relative to the untreated group: reduced body weight
  increase in body weight: did not cause an increase
